Data: patent US8658697B2 (priority 2004, dated 2014)

System: Tacaribe virus (TRVL 11573)
Assay: microbe, parasite or virus in culture
Type: cell-based
Conditions: Mammarenavirus tacaribeense, Vero, read-out: Tacaribe EC50

Structure (SMILES) | EC50 [µM]
CC(NC(=O)NNS(=O)(=O)c1ccc(-c2ccccc2)cc1)(C(F)(F)F)C(F)(F)F [Example 1] | < 0.5
CC(C)(C)c1ccc(S(=O)(=O)NNC(=O)NC(C)(C(F)(F)F)C(F)(F)F)cc1 [Example 2] | < 0.5
CN1CCOc2cc(S(=O)(=O)NNC(=O)NC(C)(C(F)(F)F)C(F)(F)F)ccc21 [Example 3, N-2-(1,1,1,3,3,3-Hexafluoro-2-methylpropyl)-2-[7-(4-methyl-3,4-dihydro-2H-benzo[1,4]oxazinyl)sulfonyl] hydrazine-1-carboxamide] | < 0.5
CN(C)c1cccc2c(S(=O)(=O)NNC(=O)NC(C)(C(F)(F)F)C(F)(F)F)cccc12 [Example 4, N-2-(1,1,1,3,3,3-Hexafluoro-2-methylpropyl)-2-[5-(1-dimethylamino-naphthyl)sulfonyl]hydrazine-1-carboxamide] | < 0.5
Cc1cc(C)c(S(=O)(=O)NNC(=O)NC(C)(C(F)(F)F)C(F)(F)F)c(C)c1 [Example 5, N-2-(1,1,1,3,3,3-Hexafluoro-2-methylpropyl)-2-[(2,4,6-trimethylphenyl)sulfonyl)hydrazine-1-carboxamide] | < 0.5
COc1ccc(Cl)cc1S(=O)(=O)NNC(=O)NC(C)(C(F)(F)F)C(F)(F)F [Example 6, N-2-(1,1,1,3,3,3-Hexafluoro-2-methylpropyl)-2-[(3-chloro-6-methoxyphenyl)sulfonyl]hydrazine-1-carboxamide] | < 0.5
COc1ccc(OC)c(S(=O)(=O)NNC(=O)NC(C)(C(F)(F)F)C(F)(F)F)c1 [Example 7, N-2-(1,1,1,3,3,3-Hexafluoro-2 methylpropyl)-2-[(3,6-dimethoxyphenyl)sulfonyl] hydrazine-1-carboxamide] | < 0.5
CC(NC(=O)NNS(=O)(=O)c1ccc(-c2csnn2)cc1)(C(F)(F)F)C(F)(F)F [Example 8, N-2-(1,1,1,3,3,3-Hexafluoro-2-methylpropyl)-2-[(4-(4-[1,2,3]thiadiazolyl)phenyl)sulfonyl] hydrazine-1-carboxamide] | < 0.5
CC(NC(=O)NNS(=O)(=O)c1cccc(Br)c1)(C(F)(F)F)C(F)(F)F [Example 9, N-2-(1,1,1,3,3,3-Hexafluoro-2-methylpropyl)-2-[(3-bromophenyl)sulfonyl)hydrazine-1-carboxamide] | < 0.5
CC(NC(=O)NNS(=O)(=O)c1ccc(Br)cc1)(C(F)(F)F)C(F)(F)F [Example 10, N-2-(1,1,1,3,3,3-Hexafluoro-2-methylpropyl)-2-[(4-bromophenyl)sulfonyl]hydrazine-1-carboxamide] | < 0.5
Cc1ccc(S(=O)(=O)NNC(=O)NC(C)(C(F)(F)F)C(F)(F)F)cc1 [Example 11, N-2-(1,1,1,3,3,3-Hexafluoro-2-methylpropyl)-2-[(4-methylphenyl)sulfonyl]hydrazine-1-carboxamide] | < 0.5
COc1ccc(S(=O)(=O)NNC(=O)NC(C)(C(F)(F)F)C(F)(F)F)cc1 [Example 12, N-2-(1,1,1,3,3,3-Hexafluoro-2-methylpropyl)-2-[(4-methylphenyl)sulfonyl]hydrazine-1-carboxamide] | < 0.5
CC(NC(=O)NNS(=O)(=O)c1ccc(OC(F)F)cc1)(C(F)(F)F)C(F)(F)F [Example 13, N-2-(1,1,1,3,3,3-Hexafluoro-2-methylpropyl)-2-[(4-difluoromethoxyphenyl)sulfonyl] hydrazine-1-carboxamide] | < 0.5
CC(NC(=O)NNS(=O)(=O)c1ccc(Cl)c(F)c1)(C(F)(F)F)C(F)(F)F [Example 14, N-2-(1,1,1,3,3,3-Hexafluoro-2-methylpropyl)-2-[(3-fluoro-4-chloro-phenyl)sulfonyl]hydrazine-1-carboxamide] | 0.5 to 1
CC(NC(=O)NNS(=O)(=O)c1ccc(OC(F)(F)F)cc1)(C(F)(F)F)C(F)(F)F [Example 15, N-2-(1,1,1,3,3,3-Hexafluoro-2-methylpropyl)-2-[(4-trifluoromethoxyphenyl)sulfonyl] hydrazine-1-carboxamide] | 0.5 to 1
CC(NC(=O)NNS(=O)(=O)c1ccc(F)cc1)(C(F)(F)F)C(F)(F)F [Example 16, N-2-(1,1,1,3,3,3-Hexafluoro-2-methylpropyl)-2-[(4-fluoro-phenyl)sulfonyl]hydrazine-1-carboxamide] | 0.5 to 1
COc1cccc(S(=O)(=O)NNC(=O)NC(C)(C(F)(F)F)C(F)(F)F)c1 [Example 17, N-2-(1,1,1,3,3,3-Hexafluoro-2-methylpropyl)-2-[(3-methoxyphenyl)sulfonyl]hydrazine-1-carboxamide] | 0.5 to 1
Cc1ccccc1S(=O)(=O)NNC(=O)NC(C)(C(F)(F)F)C(F)(F)F [Example 18, N-2-(1,1,1,3,3,3-Hexafluoro-2-methylpropyl)-2-[(2-methoxyphenyl)sulfonyl]hydrazine-1-carboxamide] | 0.5 to 1
CC(NC(=O)NNS(=O)(=O)c1cccc(C(F)(F)F)c1)(C(F)(F)F)C(F)(F)F [Example 19] | 0.5 to 1
COc1ccc(S(=O)(=O)NNC(=O)NC(C)(C(F)(F)F)C(F)(F)F)c(OC)c1 [Example 20, N-2-(1,1,1,3,3,3-Hexafluoro-2-methylpropyl)-2-[(2,4-dimethoxyphenyl)sulfonyl] hydrazine-1-carboxamide] | 0.5 to 1

Structure (SMILES) | EC50 [µM]
Cc1cccc(S(=O)(=O)NNC(=O)NC(C)(C(F)(F)F)C(F)(F)F)c1 [Example 22, N-2-(1,1,1,3,3,3-Hexafluoro-2-methylpropyl)-2-[(3-methylphenyl)sulfonyl]hydrazine-1-carboxamide] | 0.5 to 1
CC(NC(=O)NNS(=O)(=O)c1ccc(C(F)(F)F)cc1)(C(F)(F)F)C(F)(F)F [Example 23, N-2-(1,1,1,3,3,3-Hexafluoro-2-methylpropyl)-2-[(4-trifluoromethylphenyl)sulfonyl] hydrazine-1-carboxamide] | 0.5 to 1
CC(NC(=O)NNS(=O)(=O)c1ccccc1C(F)(F)F)(C(F)(F)F)C(F)(F)F [Example 24, N-2-(1,1,1,3,3,3-Hexafluoro-2-methylpropyl)-2-[(2-trifluoromethylphenyl)sulfonyl] hydrazine-1-carboxamide] | 1 to 5
CC(NC(=O)NNS(=O)(=O)c1ccc(S(=O)(=O)N2CCCC2)cc1)(C(F)(F)F)C(F)(F)F [Example 25, N-2-(1,1,1,3,3,3-Hexafluoro-2-methylpropyl)-2-[4-(pyrrolidin-1-sulfonyl)phenylsulfonyl]hydrazine-1-carboxamide] | 1 to 5
CC(NC(=O)NNS(=O)(=O)c1ccccc1Cl)(C(F)(F)F)C(F)(F)F [Example 26, N-2-(1,1,1,3,3,3-Hexafluoro-2-methylpropyl)-2-[(2-chlorophenyl)sulfonyl]hydrazine-1-carboxamide] | 1 to 5
CC(NC(=O)NNS(=O)(=O)c1ccc(N2CCOCC2)nc1)(C(F)(F)F)C(F)(F)F [Example 27, N-2-(1,1,1,3,3,3-Hexafluoro-2-methylpropyl)-2-(2-(5-morpholin-4-yl)pyridylsulfonyl]hydrazine-1-carboxamide] | 1 to 5
CC(NC(=O)NNS(=O)(=O)c1ccccc1OC(F)(F)F)(C(F)(F)F)C(F)(F)F [Example 28, N-2-(1,1,1,3,3,3-Hexafluoro-2-methylpropyl)-2-[(2-trifluoromethoxyphenyl)sulfonyl] hydrazine-1-carboxamide] | 1 to 5
CC(NC(=O)NNS(=O)(=O)c1ccc(Cl)cc1Cl)(C(F)(F)F)C(F)(F)F [Example 29, N-2-(1,1,1,3,3,3-Hexafluoro-2-methylpropyl)-2-[(2,4-dichlorophenyl)sulfonyl]hydrazine-1-carboxamide] | 1 to 5
CC(NC(=O)NNS(=O)(=O)c1ccccc1)(C(F)(F)F)C(F)(F)F [Example 30, N-2-(1,1,1,3,3,3-Hexafluoro-2-methylpropyl)-2-[phenylsulfonyl]hydrazine-1-carboxamide] | 1 to 5
CC(NC(=O)NNS(=O)(=O)c1cccc(OC(F)F)c1)(C(F)(F)F)C(F)(F)F [Example 31, N-2-(1,1,1,3,3,3-Hexafluoro-2-methylpropyl)-2-[(3-difluoromethoxyphenyl)sulfonyl] hydrazine-1-carboxamide] | 1 to 5
CC(NC(=O)NNS(=O)(=O)c1cccc(C#N)c1)(C(F)(F)F)C(F)(F)F [Example 32, N-2-(1,1,1,3,3,3-Hexafluoro-2-methylpropyl)-2-[(3-cyanophenyl)sulfonyl]hydrazine-1-carboxamide] | 1 to 5
CC(NC(=O)NNS(=O)(=O)c1ccc(C#N)cc1)(C(F)(F)F)C(F)(F)F [Example 33, N-2-(1,1,1,3,3,3-Hexafluoro-2-methylpropyl)-2-[(4-cyanophenyl)sulfonyl]hydrazine-1-carboxamide] | 1 to 5
CC(NC(=O)NNS(=O)(=O)c1cccc2c1OCCO2)(C(F)(F)F)C(F)(F)F [Example 34, N-2-(1,1,1,3,3,3-Hexafluoro-2-methylpropyl)-2-[5-(2,3-dihydrobenzo[1,4]dioxinyl)sulfonyl]hydrazine-1-carboxamide] | 1 to 5
Cc1ccc(S(=O)(=O)NN(C)C(=O)NC(C)(C(F)(F)F)C(F)(F)F)cc1 [Example 35] | 1 to 5
CC(NC(=O)NNS(=O)(=O)c1cccc(F)c1)(C(F)(F)F)C(F)(F)F [Example 36, N-2-(1,1,1,3,3,3-Hexafluoro-2-methylpropyl)-2-[(3-fluorophenyl)sulfonyl]hydrazine-1-carboxamide] | 1 to 5
CC(NC(=O)NNS(=O)(=O)c1ccc(F)c(F)c1)(C(F)(F)F)C(F)(F)F [Example 37, N-2-(1,1,1,3,3,3-Hexafluoro-2-methylpropyl)-2-[(3,4-difluorophenyl)sulfonyl]hydrazine-1-carboxamide] | 1 to 5
Cc1nc(C)c(S(=O)(=O)NNC(=O)NC(C)(C(F)(F)F)C(F)(F)F)s1 [Example 38, N-2-(1,1,1,3,3,3-Hexafluoro-2-methylpropyl)-2-[(2,4-dimethylthiazol-5-yl)sulfonyl]hydrazine-1-carboxamide] | 1 to 5
CC(NC(=O)NNS(=O)(=O)c1c(F)cccc1F)(C(F)(F)F)C(F)(F)F [Example 40, N-2-(1,1,1,3,3,3-Hexafluoro-2-methylpropyl)-2-[(2,6-difluorophenyl)sulfonyl]hydrazine-1-carboxamide] | 1 to 5
CC(NC(=O)NNS(=O)(=O)c1ccccc1F)(C(F)(F)F)C(F)(F)F [Example 41, N-2-(1,1,1,3,3,3-Hexafluoro-2-methylpropyl)-2-[(2-fluorophenyl)sulfonyl]hydrazine-1-carboxamide] | 1 to 5
